Where a name gives a salt, the structure may show the parent alone.
Key:
[1] = biological target: T1, α-1A adrenoceptor (rat vas deferens) (Rattus norvegicus, UniProt P43140); assay: Functional antagonism of phenylephrine-induced contraction of rat vas deferens; assay type: cell-based; conditions: vs phenylephrine-induced contraction, Schild plot
T1 construct: PE-induced contraction of rat vas deferens; from tissue; host or cells: isolated rat vas deferens
T1 sequence (P43140 1-466): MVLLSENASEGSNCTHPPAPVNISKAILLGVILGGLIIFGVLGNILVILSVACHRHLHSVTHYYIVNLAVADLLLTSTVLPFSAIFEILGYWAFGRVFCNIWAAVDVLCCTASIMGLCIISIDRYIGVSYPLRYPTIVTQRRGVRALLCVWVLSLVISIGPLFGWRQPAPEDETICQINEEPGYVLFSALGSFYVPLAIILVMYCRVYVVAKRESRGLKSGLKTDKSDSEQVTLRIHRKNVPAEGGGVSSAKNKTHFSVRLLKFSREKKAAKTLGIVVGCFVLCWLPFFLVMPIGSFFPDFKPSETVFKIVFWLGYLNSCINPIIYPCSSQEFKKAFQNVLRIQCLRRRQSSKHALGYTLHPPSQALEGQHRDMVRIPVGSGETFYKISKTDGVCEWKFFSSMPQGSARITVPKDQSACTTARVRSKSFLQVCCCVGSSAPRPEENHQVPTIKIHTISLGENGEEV
Text: (§1) Functional assays indicative of pharmacologically defined α-1 adrenoceptors were used to further characterize compounds. Inhibition of phenylephrine (PE)-induced contraction of canine prostate smooth muscle can be correlated with α-1A adrenoceptor activation. […] For each of these models, agonist dose response curves were repeated against increasing concentrations of test agent to derive a Schild plot [log ([…]) against log (molarity of test agent)] to determine the pA2.

[2] = biological target: T2, α-1B adrenoceptor (rat spleen) (Rattus norvegicus, UniProt P15823); assay: Functional antagonism of phenylephrine-induced contraction of rat spleen; assay type: cell-based; conditions: vs phenylephrine-induced contraction, Schild plot
T2 construct: PE-induced contraction of rat spleen; from tissue; host or cells: isolated rat spleen
T2 sequence (P15823 1-515): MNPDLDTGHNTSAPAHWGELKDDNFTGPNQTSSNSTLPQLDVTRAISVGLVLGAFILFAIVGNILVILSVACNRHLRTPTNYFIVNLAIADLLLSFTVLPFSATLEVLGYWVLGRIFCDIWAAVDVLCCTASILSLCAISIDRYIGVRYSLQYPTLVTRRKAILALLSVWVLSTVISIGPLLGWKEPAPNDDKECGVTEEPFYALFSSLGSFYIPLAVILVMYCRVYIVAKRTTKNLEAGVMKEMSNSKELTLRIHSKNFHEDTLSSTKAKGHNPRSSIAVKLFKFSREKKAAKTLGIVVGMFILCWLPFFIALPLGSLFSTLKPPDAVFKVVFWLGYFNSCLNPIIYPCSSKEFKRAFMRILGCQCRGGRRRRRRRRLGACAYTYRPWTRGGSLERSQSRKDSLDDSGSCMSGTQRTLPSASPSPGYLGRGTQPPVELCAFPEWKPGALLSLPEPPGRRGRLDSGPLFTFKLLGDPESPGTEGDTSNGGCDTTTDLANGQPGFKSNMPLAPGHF
Text: as §1

[3] = biological target: T3, α-1A adrenoceptor (dog prostate) (Homo sapiens, UniProt P35348); assay: Functional antagonism of phenylephrine-induced contraction of canine prostate strips; assay type: cell-based, dog (canine); conditions: vs phenylephrine-induced contraction, Schild plot
T3 construct: from tissue; host or cells: canine prostate strips
T3 sequence (P35348 1-466): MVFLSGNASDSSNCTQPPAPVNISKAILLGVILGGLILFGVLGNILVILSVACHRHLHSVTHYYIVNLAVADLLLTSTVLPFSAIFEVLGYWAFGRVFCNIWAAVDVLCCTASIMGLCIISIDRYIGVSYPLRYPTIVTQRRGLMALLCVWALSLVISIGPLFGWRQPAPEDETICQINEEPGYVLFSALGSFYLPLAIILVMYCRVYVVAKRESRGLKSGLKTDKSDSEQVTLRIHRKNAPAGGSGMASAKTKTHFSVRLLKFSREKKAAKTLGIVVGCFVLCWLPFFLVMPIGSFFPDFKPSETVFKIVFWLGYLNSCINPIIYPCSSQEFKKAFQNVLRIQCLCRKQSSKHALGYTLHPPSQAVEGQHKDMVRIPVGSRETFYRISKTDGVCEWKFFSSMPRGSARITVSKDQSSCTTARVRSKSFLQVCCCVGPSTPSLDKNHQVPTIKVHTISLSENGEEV
Text: Canine prostate strips were used in vitro as previously described (Hieble, J. P., Boyce, A. J. and Caine, M., Fed. Proc., 45: 2609-2614 (1986)), to determine antagonist potencies against phenylephrine-induced contractions.
as §1

BPH patients = conditions: cited from earlier work; for improvement in urinary flow rates and subjective symptom scores: longer term studies

SMILES	pA2 Rat Spleen [α-1B] [2]	pA2 Dog Prostate [α-1A] [3]	improvement in urinary flow rates and subjective symptom scores (BPH patients)	further results
COc1cccc2c1CC[C@@H]1CN(CCn3c(=O)[nH]c4ccccc4c3=O)C[C@H]21 (relative stereo) [Example 1, 3-[2-(cis-9-Methoxy-2,3,3a,4,5,9b-hexahydro-[1H]-benz[e]isoindol-1-yl)ethyl]-[1H,3H]-quinazoline-2,4(1H,3H)-dione hydrochloride]	8	9.29	–	pA2 Rat Vas Deferens [α-1A] [1]: 8.49
COc1cccc2c1CC[C@H]1CN(CCn3c(=O)[nH]c4c(-c5ccccc5)csc4c3=O)C[C@@H]21 (relative stereo) [Example 31, 3-[2-(cis-6-Methoxy-2,3,3a,4,5,9b-hexahydro-[1H]-benz[e]isoindol-1-yl)ethyl]-7-phenylthieno[3.2-d]pyrimidine-2,4(1H,3H)-dione methanesulfonate]	–	8.63	–	–
COc1cccc2c1CC[C@H]1CN(CCn3c(=O)[nH]c4cc(C)c(C)cc4c3=O)C[C@@H]21 [Example 68, hydrochloride]	–	8.28	–	–
CCCOC(=O)c1ccc2c(=O)n(CCN3C[C@@H]4CCc5c(OC)cccc5[C@@H]4C3)c(=O)[nH]c2c1 [Example 72, hydrochloride]	–	8.57	–	–
COc1cc2nc(N3CCN(C(=O)C4COc5ccccc5O4)CC3)nc(N)c2cc1OC (stereo not shown) [doxazosin]	–	–	significant improvements in urinary flow rates and subjective symptom scores	–
O=C(NC1CCN(CCc2c[nH]c3ccccc23)CC1)c1ccccc1 [indoramin]	–	–	significant improvements in urinary flow rates and subjective symptom scores	–
COc1cc2nc(N3CCN(C(=O)c4ccco4)CC3)nc(N)c2cc1OC [prazosin]	–	–	significant improvements in urinary flow rates and subjective symptom scores	–

Now from value to molecule, other results behind:

pA2 Rat Spleen [α-1B] [2]	pA2 Dog Prostate [α-1A] [3]	SMILES	improvement in urinary flow rates and subjective symptom scores (BPH patients)	further results
–	8.03	CCOc1ccc2c(=O)n(CCN3C[C@@H]4CCc5c(OC)cccc5[C@@H]4C3)c(=O)[nH]c2c1C [Example 78, 3-[2-((3aR,9bR)cis-6-Methoxy-2,3,3a,4,5,9b-hexahydro-[1H]-benz[e]isoindol-1I-yl)ethyl]-7-ethox-8-methyl-quinazoline-2,4(1H,3H|-dione hydrochloride]	–	–
8.15	9.45	COc1cccc2c1CC[C@H]1CN(CCn3c(=O)[nH]c4c(OC)c(OC)ccc4c3=O)C[C@@H]21 [Example 81, hydrochloride]	–	pA2 Rat Vas Deferens [α-1A] [1]: 8.9
8.6	–	COc1cc2nc(N3CCN(C(=O)C4CCCO4)CC3)nc(N)c2cc1OC (stereo not shown) [terazosin]	significant improvements in urinary flow rates and subjective symptom scores	clinical efficacy in BPH (BPH patients; non-selective α-1 blockers): Clinical efficacy of α-1 antagonists in BPH has been demonstrated

Source: US5792767A, “Bicyclic substituted hexahydrobenz [e] isoindole alpha-1 adrenergic antagonists” (priority 1995, dated 1998)
